# Results as given in US10647672B2, “Modulators of cell adhesion, methods and compositions therefor” (Zonula Incorporated, priority 2017, dated 2020).
# Tests used:
# Assay type in all cases: cell-based
# [1] = system: Panc-1 human pancreatic cancer cells; assay: cell death, trypan blue exclusion count; settings: 24 hours
# Description: (§1) In these experiments, Panc-1 human pancreatic cancer cells were maintained in Dulbecco's minimum essential medium supplemented with 10% fetal calf serum at 37° C. in 5% CO2 in air. All culture reagents were purchased from Invitrogen (Burlington, ON). Panc-1 cells (ATCC CRL-1469) were plated at 20,000 cells per well of a 4-well tissue culture slide (NalgeNunc, Naperville, Ill.). After 24 hours of culture, cells were treated for 24 hours with medium containing varying concentrations of compounds 15 and 16 dissolved in dimethylsulfoxide (DMSO; final concentration of 1% DMSO in the medium), or 1% DMSO alone in the medium and then fixed with 4% paraformaldehyde dissolved in phosphate buffered saline and stained with hematoxylin. Disruption of cell adhesion was determined visually within 24 hours, by observing retraction of the cells from one another.
# In order to determine the effect of the compounds on cell death, the medium was aspirated from the treated and untreated cultures and the non-adherent cells collected by centrifugation (1000 rpm for 5 min). The cells were resuspended in phosphate buffered saline and combined with trypan blue (Sigma). Cells were then put in a hemocytometer and the number of cells that excluded the trypan blue counted using a microscope to determine the number of live cells.
# [2] = system: 3D spheroid N-cadherin mouse fibroblast (LN5) cells; assay: hanging drop 3D spheroid cell culture assay; settings: hanging drops incubated 48 h
# Description: In these experiments, a total of 2×10^6 originally noncohesive embryonic mouse L929 fibroblasts (L cells) were transfected by electroporation in 400 μl transfection medium (RPMI 1640, 1% dextrose, 1 mM β-mercaptoethanol) with 40 μg pMiwcN chicken N-cadherin expression vector (Miyatani, S., et al., Science, 1989, 245, 631-635; Fujimori T., et al., Development, 1990, 110. 97-104). Neomycin resistance (pwlneo, GIBCO) was included for G418 selection. Transfected cells were diluted 1/100 and placed in medium containing 800 μg/ml G418 (GIBCO). Resistant cells were grown to confluence, detached by trypsin/Ca^2+ treatment, and stained with an anti-chicken N-cadherin antibody (NCD2, Zymed) on ice for 45 min. After several washes in Hanks' balanced salt solution, cells were mixed with a fluorescein isothiocyanate-conjugated secondary antibody and placed on ice for 30 min. N-cadherin-expressing cells were then autocloned into 96-well plates by using the CloneCyt Integrated Deposition System (Becton-Dickinson Immunocytometry Systems). Positive clones were reanalyzed by FACS and the L cell line LN5 was propagated for these studies.
# The 3D spheroids were generated as follows. Cells were removed from near-confluent plates with TC (0.05% trypsin and 2 mM Ca^2+ in Hank's solution for 5-10 minutes), washed once with 1 mL 4° C. Hank's solution, and suspended at a concentration of 2.5×10^6 cells/ml in complete MEM supplemented with 2 mM CaCl2 and varying concentrations of N-cadherin antagonists (Crocus Laboratories, Montreal, Quebec, Canada). The antagonists were compound 15 (MW=499.43) and compound 16 (MW=499.43). Stock solutions of the antagonists were prepared by dissolving the antagonists in DMSO at concentrations of 30 mM. Controls were made by suspending the cells as described above in the absence of antagonists with only the respective amount of DMSO added. Drops of the cell suspensions (10 microliters each) were deposited on the underside of a 10 cm tissue culture dish lid. The lid was then inverted and placed on dish containing 5 ml of PBS for hydration. Hanging drops were incubated under tissue culture conditions for 48 h, allowing the cells to coalesce at the base of the droplets and to form multi-layer aggregates. The tissue culture dish lid was then removed and the medium was gently aspirated. Aggregates (N=10-20) where then photographed under 4× lens and cell area was analyzed using ImageJ. Statistical differences were determined using ANOVA and Tukey's multiple comparison test.
# Each of the antagonists tested from Crocus Laboratories contained cadherin antagonist properties at different potency levels. We determined the approximate minimum concentration needed for an anti-adhesion dose response on 3D spheroid N-cadherin mouse fibroblast (LN5) cells. […]
# [3] = system: Panc-1 human pancreatic cancer cells; assay: cancer cell adhesion, visual retraction of cells; settings: 24 hours, light microscopy
# Description: as §1
smiles,measurement,setting,value
"COc1ccc(OC[C@@H](O)CNC2CCN(C[C@@H](O)COc3ccc(Cl)c(Cl)c3)CC2)cc1 [Compound 16, (R)-1-(3,4-Dichlorophenoxy)-3-(4-((S)-2-hydroxy-3-(4-methoxyphenoxy)propylamino)piperidin-1-yl)propan-2-ol]",cell death in comparison to the control,[1]; 1 μM,caused cell death
same,cell death in comparison to the control,[1]; 10 μM,caused cell death
same,cell death in comparison to the control,[1]; 100 μM,caused cell death
same,concentration at which complete disruption occurred,[2],75 µM
same,minimum concentration required to observe cohesion disruption,[2],50 µM
same,disruption of cell adhesion,[3]; 0.1 μM,disrupted cell adhesion
same,disruption of cell adhesion,[3]; 1 μM,disrupted cell adhesion
same,disruption of cell adhesion,[3]; 10 μM,disrupted cell adhesion
same,disruption of cell adhesion,[3]; 100 μM,disrupted cell adhesion
